# Reference: ChEMBL document CHEMBL1201862, “PubChem BioAssay data set” (2004)
#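 Interpolation was linear, between the two tested concentrations surrounding the appropriate level; five concentrations were tested over 48 hours in 96-well plates. GI50: concentration for 50% inhibition of growth.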 Active and inactive are the calls of the source. Rule as the data show it: active = GI50 up to about 1.1 µM and inactive = higher.
# Columns and labels:
# Test in all cases: DTP human tumour cell line panel, 48 h
# U-251 = test system: U-251
# A498 = test system: A498
# Hs-578T = test system: Hs-578T
# DU-145 = test system: DU-145
# KM12 = test system: KM12
# A549 = test system: A549
# OVCAR-5 = test system: OVCAR-5
# M14 = test system: M14
# MOLT-4 = test system: MOLT-4
# RXF 393 = test system: RXF 393
# HCC 2998 = test system: HCC 2998
# NCI/ADR-RES = test system: NCI/ADR-RES
# 786-0 = test system: 786-0
# UACC-62 = test system: UACC-62
# SF-295 = test system: SF-295
# HCT-15 = test system: HCT-15
# OVCAR-8 = test system: OVCAR-8
# BT-549 = test system: BT-549
# LOX IMVI = test system: LOX IMVI
# MCF7 = test system: MCF7
# EKVX = test system: EKVX
# UO-31 = test system: UO-31
# PC-3 = test system: PC-3
# HOP-92 = test system: HOP-92
# SW-620 = test system: SW-620
# NCI-H460 = test system: NCI-H460
# TK-10 = test system: TK-10
# RPMI-8226 = test system: RPMI-8226
# IGROV-1 = test system: IGROV-1
# MDA-MB-435 = test system: MDA-MB-435
# ACHN = test system: ACHN
# OVCAR-3 = test system: OVCAR-3
# SK-MEL-28 = test system: SK-MEL-28
# K562 = test system: K562
# UACC-257 = test system: UACC-257
# CCRF-CEM = test system: CCRF-CEM
# HT-29 = test system: HT-29
# SR = test system: SR
# SK-MEL-5 = test system: SK-MEL-5
# NCI-H226 = test system: NCI-H226
# HOP-62 = test system: HOP-62
# CAKI-1 = test system: CAKI-1
# Malme-3M = test system: Malme-3M
# MDA-MB-231 = test system: MDA-MB-231
# HCT-116 = test system: HCT-116
# SF-268 = test system: SF-268
# NCI-H23 = test system: NCI-H23
# NCI-H522 = test system: NCI-H522
# SNB-19 = test system: SNB-19
# HL-60 = test system: HL-60
# SN12C = test system: SN12C
# SF-539 = test system: SF-539
# T47D = test system: T47D
# OVCAR-4 = test system: OVCAR-4
# SNB-75 = test system: SNB-75
# COLO 205 = test system: COLO 205
# SK-MEL-2 = test system: SK-MEL-2
# SK-OV-3 = test system: SK-OV-3
structure (smiles),measurement,setting,value
CCOC(=O)C1CCC(=O)N1C(=O)c1ccccc1 (stereo unspecified),GI50,U-251,> 100 µM (inactive)
same,GI50,A498,> 100 µM (inactive)
same,GI50,Hs-578T,> 100 µM (inactive)
same,GI50,DU-145,> 100 µM (inactive)
same,GI50,KM12,> 100 µM (inactive)
same,GI50,A549,> 100 µM (inactive)
same,GI50,OVCAR-5,> 100 µM (inactive)
same,GI50,M14,> 100 µM (inactive)
same,GI50,MOLT-4,> 100 µM (inactive)
same,GI50,RXF 393,> 100 µM (inactive)
same,GI50,HCC 2998,> 100 µM (inactive)
same,GI50,NCI/ADR-RES,> 100 µM (inactive)
same,GI50,786-0,> 100 µM (inactive)
same,GI50,UACC-62,7.83 µM (inactive)
same,GI50,SF-295,> 100 µM (inactive)
same,GI50,HCT-15,> 100 µM
same,GI50,OVCAR-8,> 100 µM (inactive)
same,GI50,BT-549,> 100 µM (inactive)
same,GI50,LOX IMVI,92.3 µM (inactive)
same,GI50,MCF7,> 100 µM (inactive)
same,GI50,EKVX,> 100 µM (inactive)
same,GI50,UO-31,> 100 µM (inactive)
same,GI50,PC-3,> 100 µM (inactive)
same,GI50,HOP-92,> 100 µM (inactive)
same,GI50,SW-620,> 100 µM (inactive)
same,GI50,NCI-H460,> 100 µM (inactive)
same,GI50,TK-10,> 100 µM (inactive)
same,GI50,RPMI-8226,> 100 µM (inactive)
same,GI50,IGROV-1,> 100 µM (inactive)
same,GI50,MDA-MB-435,> 100 µM (inactive)
same,GI50,ACHN,> 100 µM (inactive)
same,GI50,OVCAR-3,> 100 µM (inactive)
same,GI50,SK-MEL-28,> 100 µM (inactive)
same,GI50,K562,> 100 µM (inactive)
same,GI50,UACC-257,> 100 µM (inactive)
same,GI50,CCRF-CEM,> 100 µM (inactive)
same,GI50,HT-29,> 100 µM (inactive)
same,GI50,SR,> 100 µM (inactive)
same,GI50,SK-MEL-5,> 100 µM (inactive)
same,GI50,NCI-H226,> 100 µM (inactive)
same,GI50,HOP-62,> 100 µM (inactive)
same,GI50,CAKI-1,> 100 µM (inactive)
same,GI50,Malme-3M,> 100 µM (inactive)
same,GI50,MDA-MB-231,> 100 µM (inactive)
same,GI50,HCT-116,> 100 µM (inactive)
same,GI50,SF-268,> 100 µM (inactive)
same,GI50,NCI-H23,> 100 µM (inactive)
same,GI50,NCI-H522,> 100 µM (inactive)
same,GI50,SNB-19,> 100 µM (inactive)
same,GI50,HL-60,> 100 µM (inactive)
same,GI50,SN12C,> 100 µM (inactive)
same,GI50,SF-539,> 100 µM (inactive)
same,GI50,T47D,> 100 µM (inactive)
COc1ccccc1NC(=S)N/N=C/c1c(C)n(C)n(-c2ccccc2)c1=O,GI50,U-251,> 100 µM (inactive)
same,GI50,A498,71 µM (inactive)
same,GI50,Hs-578T,37.8 µM (inactive)
same,GI50,DU-145,40.8 µM (inactive)
same,GI50,KM12,31.8 µM (inactive)
same,GI50,M14,61.8 µM (inactive)
same,GI50,MOLT-4,41.5 µM (inactive)
same,GI50,RXF 393,34.9 µM (inactive)
same,GI50,HCC 2998,> 100 µM (inactive)
same,GI50,NCI/ADR-RES,21.1 µM (inactive)
same,GI50,786-0,> 100 µM (inactive)
same,GI50,UACC-62,> 100 µM (inactive)
same,GI50,SF-295,59.3 µM (inactive)
same,GI50,HCT-15,41.3 µM
same,GI50,OVCAR-8,56.9 µM (inactive)
same,GI50,BT-549,> 100 µM (inactive)
same,GI50,LOX IMVI,49.8 µM (inactive)
same,GI50,MCF7,> 100 µM (inactive)
same,GI50,EKVX,> 100 µM (inactive)
same,GI50,UO-31,> 100 µM (inactive)
same,GI50,PC-3,> 100 µM (inactive)
same,GI50,HOP-92,43.6 µM (inactive)
same,GI50,SW-620,91.8 µM (inactive)
same,GI50,NCI-H460,> 100 µM (inactive)
same,GI50,TK-10,> 100 µM (inactive)
same,GI50,RPMI-8226,> 100 µM (inactive)
same,GI50,IGROV-1,> 100 µM (inactive)
same,GI50,OVCAR-4,> 100 µM (inactive)
same,GI50,MDA-MB-435,34.6 µM (inactive)
same,GI50,ACHN,> 100 µM (inactive)
same,GI50,SK-MEL-28,> 100 µM (inactive)
same,GI50,K562,> 100 µM (inactive)
same,GI50,UACC-257,> 100 µM (inactive)
same,GI50,CCRF-CEM,> 100 µM (inactive)
same,GI50,HT-29,> 100 µM (inactive)
same,GI50,SNB-75,49 µM (inactive)
same,GI50,SR,51.6 µM (inactive)
same,GI50,SK-MEL-5,> 100 µM (inactive)
same,GI50,NCI-H226,82.4 µM (inactive)
same,GI50,HOP-62,53.3 µM (inactive)
same,GI50,COLO 205,> 100 µM (inactive)
same,GI50,CAKI-1,> 100 µM (inactive)
same,GI50,MDA-MB-231,> 100 µM (inactive)
same,GI50,HCT-116,> 100 µM (inactive)
same,GI50,SF-268,45.1 µM (inactive)
same,GI50,NCI-H23,> 100 µM (inactive)
same,GI50,SNB-19,> 100 µM (inactive)
same,GI50,HL-60,> 100 µM (inactive)
same,GI50,SK-MEL-2,> 100 µM (inactive)
same,GI50,SF-539,49.9 µM (inactive)
same,GI50,SK-OV-3,35.3 µM (inactive)
same,GI50,T47D,> 100 µM (inactive)
COc1ccc(CCNC(=O)CCCCCO)cc1OC,GI50,U-251,> 100 µM (inactive)
same,GI50,A498,> 100 µM (inactive)
same,GI50,Hs-578T,> 100 µM (inactive)
same,GI50,DU-145,> 100 µM (inactive)
same,GI50,KM12,> 100 µM (inactive)
same,GI50,A549,> 100 µM (inactive)
same,GI50,OVCAR-5,> 100 µM (inactive)
same,GI50,M14,> 100 µM (inactive)
same,GI50,MOLT-4,> 100 µM (inactive)
same,GI50,RXF 393,> 100 µM (inactive)
same,GI50,HCC 2998,> 100 µM (inactive)
same,GI50,NCI/ADR-RES,> 100 µM (inactive)
same,GI50,786-0,> 100 µM (inactive)
same,GI50,UACC-62,> 100 µM (inactive)
same,GI50,SF-295,> 100 µM (inactive)
same,GI50,HCT-15,> 100 µM
same,GI50,OVCAR-8,> 100 µM (inactive)
same,GI50,BT-549,> 100 µM (inactive)
same,GI50,MCF7,> 100 µM (inactive)
same,GI50,EKVX,> 100 µM (inactive)
same,GI50,UO-31,> 100 µM (inactive)
same,GI50,PC-3,> 100 µM (inactive)
same,GI50,HOP-92,> 100 µM (inactive)
same,GI50,SW-620,> 100 µM (inactive)
same,GI50,NCI-H460,> 100 µM (inactive)
same,GI50,TK-10,> 100 µM (inactive)
same,GI50,RPMI-8226,> 100 µM (inactive)
same,GI50,IGROV-1,> 100 µM (inactive)
same,GI50,OVCAR-4,> 100 µM (inactive)
same,GI50,MDA-MB-435,> 100 µM (inactive)
same,GI50,ACHN,> 100 µM (inactive)
same,GI50,OVCAR-3,> 100 µM (inactive)
same,GI50,SK-MEL-28,> 100 µM (inactive)
same,GI50,K562,> 100 µM (inactive)
same,GI50,UACC-257,> 100 µM (inactive)
same,GI50,CCRF-CEM,> 100 µM (inactive)
same,GI50,HT-29,> 100 µM (inactive)
same,GI50,SNB-75,> 100 µM (inactive)
same,GI50,SR,> 100 µM (inactive)
same,GI50,SK-MEL-5,> 100 µM (inactive)
same,GI50,NCI-H226,> 100 µM (inactive)
same,GI50,HOP-62,> 100 µM (inactive)
same,GI50,COLO 205,> 100 µM (inactive)
same,GI50,CAKI-1,> 100 µM (inactive)
same,GI50,MDA-MB-231,> 100 µM (inactive)
same,GI50,HCT-116,> 100 µM (inactive)
same,GI50,SF-268,> 100 µM (inactive)
same,GI50,NCI-H23,> 100 µM (inactive)
same,GI50,NCI-H522,> 100 µM (inactive)
same,GI50,SNB-19,> 100 µM (inactive)
same,GI50,HL-60,> 100 µM (inactive)
same,GI50,SN12C,> 100 µM (inactive)
same,GI50,SK-MEL-2,> 100 µM (inactive)
same,GI50,SF-539,> 100 µM (inactive)
same,GI50,SK-OV-3,> 100 µM (inactive)
same,GI50,T47D,> 100 µM (inactive)
